Laboratory results published in patent US4590061A, “Antimicrobial plaque disclosing agent” (priority 1985, dated 1986).
Where two headings read alike, the source gives them in different places.

How the values were obtained:
[1] = Approximate retention times in oral tissues
Excerpt: The approximate retention times in oral tissues of six alkaloids found in extracts from Sanguinaria canadensis is shown in Table IV.

[2] = Visual plaque disclosure scoring in healthy volunteers (Table I); format: in vivo; settings: for Mean Plaque Area Score, 1 Hour later / Mean Plaque Area Score, Baseline: visual assessment
Experimental: Sanguinarine chloride was compared to two standard disclosing dyes, erythrosine and sodium fluorescein. At weekly interval healthy volunteers underwent a 12-24 hour, no oral hygiene period. Subjects then used one of the following: erythrosine, sodium flourescein, or sanguinarine chloride. Subjects rinsed two times with 15 ml. of the rinse, while the erythrosine and sodium fluorescein were used according to customary practice. Color was evaluated under ambient light after erythrosine, under ambient light for sodium fluorescein, and under longwave UV fluorescent light for sanguinarine. The color was scored for location, amount, and area.
All of the disclosing agents colored soft dental deposits at gingival margins and at the dorsal surface of the tongue. […] Mean values of plaque were measured for all disclosants.
(§1) This was the oral rinse used for the tests described in Tables I, II, and III.

[3] = tested on: human dental plaque forming microorganisms; assay: Reduction of dental plaque / inactivation of plaque forming microorganisms in vitro; format: cell-based
[4] = tested on: variety of microorganism; assay: Antimicrobial properties (general statement); format: cell-based
[5] = format: in vivo
Excerpt: This would indicate that the retention of sanguinarine in plaque may be responsible for its clinical effectiveness in plaque assays, and that plaque may serve as a reservoir for sanguinarine.
as §1

[6] = In vivo plaque retention of sanguinarine (HPLC)
Excerpt: as §1

[7] = alkaloids found in extracts from Sanguinaria canadensis
[8] = human, in vivo, po, In Vivo Plaque Retention of Sanguinarine

Row | SMILES | Approximate Retention time (in oral tissues) [1, 7] | Mean Plaque Area Score, 1 Hour later [2] | Mean Plaque Area Score, Baseline [2] | also measured
1 | COc1ccc2c(c[n+](C)c3c4cc5c(cc4ccc23)OCO5)c1OC [Chelerythrine] |  |  |  | Approximate Retention time (in oral tissues) [1]: 16.5 to 17.0 min
2 | COc1cc(OC)c2c(c[n+](C)c3c4cc5c(cc4ccc23)OCO5)c1OC [Chelilutine] | 15.5 to 16.0 min |  |  | 
3 | COc1cc2c(c3c[n+](C)c4c5cc6c(cc5ccc4c13)OCO6)OCO2 [Chelirubine] | ~7.5 min |  |  | 
4 | O=C1OC2(c3ccccc31)c1cc(I)c(O)c(I)c1Oc1c2cc(I)c(O)c1I [Erythrosine, reference compound] |  | 2.18 ± 0.5 | 2.86 ± 0.43 | 
5 | COc1cc2ccc3c4c(OC)cc(OC)c(OC)c4c[n+](C)c3c2cc1OC [Sanguilutine] | 18.5 to 19.0 min |  |  | 
6 | C[n+]1cc2c3c(ccc2c2ccc4cc5c(cc4c21)OCO5)OCO3 [Sanguinarine chloride] |  | 2.86 ± 0.26 | 2.87 ± 0.23 | killing at 25 µg/mL ([3]; Homo sapiens, 25 micrograms per milliliter, read-out: reduction of dental plaque by inactivating plaque forming microorganisms): 100%; comparison with chlorhexidine in inhibition of human dental plaque forming microorganisms ([3]; in vitro, versus chlorhexidine (Hibitane)): compated favorably in vitro with chlorhexidine; plaque disclosure ([2]; sanguinarine chloride mouthwash): disclosed plaque effectively; duration of disclosure ([2]; versus erythrosine and sodium fluorescein): lasted significantly longer than for the other two disclosing dyes; antimicrobial properties [4]: strong antimicrobial properties
7 | C[n+]1cc2c3c(ccc2c2ccc4cc5c(cc4c21)OCO5)OCO3 [Sanguinarine] | 9.5 to 10.0 min |  |  | levels in saliva relative to anti-glycolytic effect [5]: high enough to exert an anti-glycolytic effect on saliva; level in plaque versus in vitro minimum inhibitory concentrations ([6]; HPLC, plaque): much higher in vitro minimum inhibitory concentrations; In Vivo Plaque Retention of Sanguinarine ([6]; human, in vivo, po, 1 h): 46 ug/g of wet plaque; concentration at 1 h [6, 8]: 56000 ng/g; concentration at 2 h [6, 8]: 27000 ng/g
8 | COc1cc2ccc3c4c(OC)cc5c(c4c[n+](C)c3c2cc1OC)OCO5 [Sanguirubine] | 12.5 to 13.0 min |  |  | 
9 | O=C1OC2(c3ccc(O)cc3Oc3cc(O)ccc32)c2ccccc21 [Sodium Fluorescein, reference compound] |  | 1.74 ± 0.45 | 2.84 ± 0.22 | 
